Measured values from paper PMC8762250, “Identification of Novel Chemical Scaffolds that Inhibit the Growth of Mycobacterium tuberculosis in Macrophages” (Frontiers in Pharmacology, 2022).
Read-outs that look alike come from different tables or passages of the source. Marks after values point to notes of the source that are not given here.

Tests used:
[1] = HepG2 cytotoxicity (CellTiter-Glo, 72 h); type: cell-based, human; conditions: human
Description: (§1) Cytotoxicity against HepG2 cells was measured after 72 h. Cells were seeded in 384-well plates at 1,800 cells per well. Compounds were added as a 10-point three-fold serial dilution after 24 h (final assay concentration of 1% DMSO). CellTiter-Glo® reagent (Promega) was added and relative luminescence units (RLU) measured. Data were normalized to the DMSO controls. Curves were fitted using the Levenberg–Marquardt algorithm; TC50 was calculated as the compound concentration required to reduce cell viability by 50%.
(§2) We further evaluated cytotoxicity using the HepG2 cell line cultured with either glucose or galactose in the medium (Table 2). HepG2 cells cultured with galactose rely on mitochondrial oxidative phosphorylation rather than glycolysis which increases their susceptibility to mitochondrial toxicants allowing us to identify compounds with mitochondrial toxicity ([Kamalian et al., 2015]).

M. tuberculosis [2] = experiment: Minimum inhibitory concentration in liquid medium (axenic culture); type: cell-based, Mycobacterium tuberculosis; conditions: Mycobacterium tuberculosis
M. tuberculosis [3] = experiment: High content assay of intracellular M. tuberculosis growth in infected RAW264.7 macrophages; type: cell-based, Mycobacterium tuberculosis H37Rv-LP; conditions: for IC50: SAR tables 4-8
Description: Compounds were obtained in 384-well plates as 10 mM DMSO stock solutions and tested as described ([Manning et al., 2017]). Briefly, assay plates were prepared in clear bottom, black 384-well plates with 30 μl cRPMI and 0.6 μl compound in columns 3–22 (final concentration of 10 μM compound, 1% DMSO). […] INH and STA were also included in dose response on each plate. RAW264.7 cells were infected with M. tuberculosis DREAM8 as described ([Manning et al., 2017]) at an MOI of 1 for 24 h and extracellular bacteria removed by washing. Cells were recovered using Accumax, harvested, washed and resuspended in serum-free RPMI; 30 μl of infected cells were dispensed into each well at 3,300 cells/well. Plates were incubated for 72 h, 10 μl of 5X SYBR Green I was added and plates were imaged with an ImageXpress Micro High Content Screening System (Molecular Devices) using a ×4 objective and FITC and Texas Red channels. MetaXpress was used to analyze images. The integrated intensity of M. tuberculosis or macrophages was calculated for each well. Growth inhibition was calculated for each test well by normalizing to the average integrated intensity of the DMSO control wells. IC50 was calculated as the compound concentration required to reduce bacterial growth by 50%. TC50 was calculated as the compound concentration required to reduce macrophage viability by 50%.

RAW264.7 cells = experiment: Macrophage viability in the same high content assay; conditions: infected RAW264.7 macrophages; for Intracellular RAW TC50: SAR tables 4-8
HepG2 cells = experiment: HepG2 cytotoxicity (CellTiter-Glo, 72 h); type: cell-based, human
Description: as §1, §2

[4] = HepG2 cytotoxicity IC50 Galactose
[5] = HepG2 cytotoxicity IC50 Glucose
[6] = axenic culture, SAR tables 4-8, read-out: Extracellular IC90
[7] = Mycobacterium tuberculosis, RAW264.7, in RAW264.7 macrophages, read-out: Intracellular Mtb IC50

## Nc1c(C(=O)N2CCCCC2)sc2nc3c(cc12)CCCC3 [TPN-0073024]
[1]; [4]
  IC50 at 72 h: > 100 µM
[1]; [5]
  IC50 at 72 h: > 100 µM
M. tuberculosis [2]; [6]
  IC90: > 20 µM
M. tuberculosis [3]; [7]
  IC50: 62 ± 31 µM
RAW264.7 cells
  Intracellular RAW TC50: >100 ^b µM

## Cc1cc(OCC(=O)N2CCC(C)CC2)ccc1Br [TPN-0006213]
[1]; [4]
  IC50 at 72 h: 55 ± 5 µM
[1]; [5]
  IC50 at 72 h: 93 ± 3.5 µM
M. tuberculosis [2]; [6]
  IC90: > 20 µM
M. tuberculosis [3]; [7]
  IC50: 6.6 ± 1.6 µM
RAW264.7 cells
  Intracellular RAW TC50: 75 ± 16 ^b µM

## O=C(COc1ccc(Br)cc1)N1CCN(c2ccccc2F)CC1 [TPN-0006215]
[1]; [4]
  IC50 at 72 h: 57 ± 3 µM
[1]; [5]
  IC50 at 72 h: 96 ± 2.5 µM
M. tuberculosis [2]; [6]
  IC90: > 20 µM
M. tuberculosis [3]; [7]
  IC50: 12 ± 1.6 µM
RAW264.7 cells
  Intracellular RAW TC50: 60 ± 27 ^b µM

## CCN(CC)C(=O)c1sc2nc(-c3ccccc3)ccc2c1N [TPN-0073025]
[1]; [4]
  IC50 at 72 h: 42 µM
[1]; [5]
  IC50 at 72 h: 61 ± 48 µM
M. tuberculosis [2]; [6]
  IC90: > 20 µM
M. tuberculosis [3]
  activity against intracellular M. tuberculosis: weak activity
M. tuberculosis [3]; [7]
  IC50: < 10 µM
M. tuberculosis [3]; in RAW264.7 macrophages, read-out: Intracellular Mtb IC50
  IC50: 9 ± 6.6 µM
RAW264.7 cells
  Intracellular RAW TC50: 30 ± 6.6 ^f µM

## Nc1c(C(=O)Nc2nccs2)sc2nc3c(cc12)CCC3 [TPN-0073030]
[1]; [4]
  IC50 at 72 h: > 100 µM
[1]; [5]
  IC50 at 72 h: > 100 µM
M. tuberculosis [2]; [6]
  IC90: > 20 µM
M. tuberculosis [3]; Mycobacterium tuberculosis, RAW264.7, read-out: Intracellular Mtb IC50, in RAW264.7 macrophages
  IC50: 1.1 µM
RAW264.7 cells
  Intracellular RAW TC50: >100 ^c µM

## OCc1cn(-c2ccc(F)cc2)nc1-c1ccc(Cl)cc1 [TPN-0073583]
[1]; [4]
  IC50 at 72 h: 57 ± 28 µM
[1]; [5]
  IC50 at 72 h: 66 ± 29 µM
M. tuberculosis [2]; [6]
  IC90: > 20 µM
M. tuberculosis [3]; [7]
  IC50: 5.8 ± 0.4 µM
RAW264.7 cells
  Intracellular RAW TC50: >100 ^d µM

## COCc1cc(C)nc2sc(C(=O)c3ccccc3)c(N)c12 [TPN-0073023]
[1]; [4]
  IC50 at 72 h: 49 µM
[1]; [5]
  IC50 at 72 h: 68 ± 1 µM
M. tuberculosis [2]; [6]
  IC90: > 20 µM
M. tuberculosis [3]; [7]
  IC50: 17 ± 6.5 µM
RAW264.7 cells
  Intracellular RAW TC50: 67 ± 18 ^d µM

## Nc1c(C(=O)c2ccc(F)cc2)sc2nc(-c3ccccc3)cc(-c3ccccc3)c12 [TPN-0073026]
[1]; [4]
  IC50 at 72 h: > 100 µM
[1]; [5]
  IC50 at 72 h: > 100 µM
M. tuberculosis [2]; [6]
  IC90: > 20 µM
M. tuberculosis [3]
  activity against intracellular M. tuberculosis: not active
M. tuberculosis [3]; [7]
  IC50: > 100 µM
RAW264.7 cells
  Intracellular RAW TC50: >100 ^a µM

## Cc1c(Cc2ccccc2)sc(NC(=O)c2ccccc2Cl)c1C(N)=O [TPN-0073560]
[1]; [4]
  IC50 at 72 h: 42 ± 3.3 µM
[1]; [5]
  IC50 at 72 h: > 100 µM
HepG2 cells; HepG2, glucose vs galactose
  ratio of TC50glu/TC50gal: ~4
HepG2 cells; human, 72 h
  HepG2 cytotoxicity TC50 Galactose: 42 ± 3.3 ^c µM
  HepG2 cytotoxicity TC50 Glucose: >100 ^b µM
M. tuberculosis [2]; 120 h, extracellular, 5 days, OD590, read-out: Anti-tubercular activity in axenic culture IC50
  IC50: > 20 µM
M. tuberculosis [2]; 120 h, extracellular, 5 days, OD590, read-out: Anti-tubercular activity in axenic culture IC90
  IC90: > 20 µM
M. tuberculosis [2]; [6]
  IC90: > 20 µM
RAW264.7 cells; 72 h
  Intracellular activity Cytotoxicity TC50: 23 ± 4.7 ^d µM
RAW264.7 cells
  Intracellular RAW TC50: 23 ± 4.7 ^d µM

## O=C(CSc1ccccn1)Nc1ccc(F)c(F)c1 [TPN-0006203]
[1]; [4]
  IC50 at 72 h: > 100 µM
[1]; [5]
  IC50 at 72 h: > 100 µM
M. tuberculosis [2]; [6]
  IC90: > 20 µM
M. tuberculosis [3]
  activity against intracellular M. tuberculosis: good intracellular activity
M. tuberculosis [3]; [7]
  IC50: 7.8 ± 1.6 µM
RAW264.7 cells
  Intracellular RAW TC50: >100 ^b µM

## O=C(Nc1ccc(C(F)(F)F)cc1)Nc1cccc(Cl)c1 [TPN-0073070]
[1]; [4]
  IC50 at 72 h: 5.5 µM
[1]; [5]
  IC50 at 72 h: 5.6 µM
M. tuberculosis [2]; [6]
  IC90: 15 µM
M. tuberculosis [3]; [7]
  IC50: 0.7 ± 0.2 µM
RAW264.7 cells
  Intracellular RAW TC50: 1.8 ± 0.5 ^b µM
RAW264.7 cells; listed as 17
  Intracellular RAW TC50: 1.8 µM
